Patent US20140018558A1, “DOCOSAHEXAENOIC ACID (DHA) AS POLYUNSATURATED FREE FATTY ACID IN ITS DIRECTLY COMPRESSIBLE POWDER FORM AND METHOD OF ISOLATION THEREOF” (priority 2011, published 2014)

Experiments:
[1] = Stability of DHA powder at room temperature; type: physicochemical; settings: powder form, no antioxidants added
[2] = Solubility of the isolated DHA powder (physical characterisation); type: physicochemical; settings: solvent chloroform; isolated DHA free fatty acid powder
Experimental: Take 1 liter of fish oil. Maintain temperature to 40-45° C. To it add 1-2% methanolic/ethanolic/propanolic/butanolic sodium or potassium hydroxide 1 liter. Stir for ½ an hour. It separates two layers, discard upper layer which contains lower fatty acids and other impurities. Then, to the lower layer add 750 ml of acetone or ethyl or methyl ketone and stir for one hr and keep aside for ½ hour to precipitate DHA. Filter it and wash 2-3 times with equal quantity of acetone. Evaporate and recover the solvent with temperature not exceeding 40 degree C. This leads to drying of the precipitated DHA at room temperature to form the crystalline mass. The same is passed through the sieve to obtain a dry, directly compressible, free flowing powder of polyunsaturated free fatty acid DHA thereof. The DHA is creamish or off-white crystalline solid powder having melting point 60-62 degree C.
Cool fish oil 12 degree C. to solidify all fatty acids in waxy form and separate it from fish oil. Maintain temperature to 40-45° C. In 1 kg waxy fatty acid, add 1 litre ethanolic or methanolic or propanolic or butanolic sodium or potassium hydroxide 1-2% and stir it for ½ an hour. The solution separates the oily layer which contains lower fatty acids and other impurities then, add ethyl acetate:acetone 90:10 to 10:90 to above solvent. It precipitates DHA in solid form. […]

Compound: CC/C=C\C/C=C\C/C=C\C/C=C\C/C=C\C/C=C\CCC(=O)O [DHA, Docosahexaenoic acid]
- Stability [1]: stable at room temperature
- Solubility [2]: freely soluble in chloroform
